Measured values reported in ChEMBL document CHEMBL3885881, “DrugMatrix”.

Species: Rattus norvegicus
Assay: DrugMatrix - Regimen: Daily Repeat
Format: toxicity, organism-based, Sprague-Dawley
Parameters: regimen Daily Repeat, gender Male, age 6-8 weeks
Details: in vivo, po, route oral GAVAGE, vehicle 100 % SALINE; for ABSOLUTE BASOPHIL / ABSOLUTE EOSINOPHIL / ABSOLUTE LYMPHOCYTE / ABSOLUTE MONOCYTE / ABSOLUTE SEGMENTED NEUTROPHIL / BASOPHIL / EOSINOPHIL / ERYTHROCYTE COUNT / HEMATOCRIT / HEMOGLOBIN / LEUKOCYTE COUNT / LYMPHOCYTE / MEAN CORPUSCULAR HEMOGLOBIN / MEAN CORPUSCULAR HEMOGLOBIN CONCENTRATION / MEAN CORPUSCULAR VOLUME / MONOCYTE / NEUTROPHIL / NUCLEATED RED BLOOD CELLS / PLATELET COUNT: tissue Blood; for ALANINE AMINOTRANSFERASE / ALBUMIN / ALKALINE PHOSPHATASE / ASPARTATE AMINOTRANSFERASE / BLOOD UREA NITROGEN / CARBON DIOXIDE / CHLORIDE / CHOLESTEROL / CREATINE PHOSPHOKINASE / CREATININE / GLUCOSE / LACTATE DEHYDROGENASE / LIPASE / PHOSPHORUS / POTASSIUM / SODIUM / TOTAL BILIRUBIN / TOTAL PROTEIN / URIC ACID: tissue Plasma
[1] = 0 mg/kg, 72 h, dose level Control, time 3 day
[2] = 0 mg/kg, […], dose level Control, time 7 day
[3] = 10 mg/kg, 72 h, dose level Low, time 3 day

## O=[As][O-].[Na+] [SODIUM ARSENITE]
[1]
  ABSOLUTE BASOPHIL: 0 CELLS/uL
  ABSOLUTE EOSINOPHIL: 66 CELLS/uL
  ABSOLUTE LYMPHOCYTE: 11922.83 CELLS/uL
  ABSOLUTE MONOCYTE: 401.5 CELLS/uL
  ABSOLUTE SEGMENTED NEUTROPHIL: 1526.33 CELLS/uL
  BASOPHIL: 0%
  EOSINOPHIL: 0.5%
  ERYTHROCYTE COUNT: 5.62 x10E6/uL
  HEMATOCRIT: 37.17%
  HEMOGLOBIN: 13.53 G/DL
  LEUKOCYTE COUNT: 13.92 x10E3/uL
  LYMPHOCYTE: 86.17%
  MEAN CORPUSCULAR HEMOGLOBIN: 24.07 pg
  MEAN CORPUSCULAR HEMOGLOBIN CONCENTRATION: 36.42 G/DL
  MEAN CORPUSCULAR VOLUME: 66.1 fL
  MONOCYTE: 3%
  NEUTROPHIL: 10.33%
  NUCLEATED RED BLOOD CELLS: 0 /100WBC
  PLATELET COUNT: 1107 x10E3/uL
  ALANINE AMINOTRANSFERASE: 45.33 u/L
  ALBUMIN: 4.3 G/DL
  ALKALINE PHOSPHATASE: 321.33 u/L
  ASPARTATE AMINOTRANSFERASE: 77.33 u/L
  BLOOD UREA NITROGEN: 14.33 mg/dL
  CARBON DIOXIDE: 32.33 mmol/L
  CHLORIDE: 99.67 MEQ/L
  CHOLESTEROL: 82.33 mg/dL
  CREATINE PHOSPHOKINASE: 205.5 u/L
  CREATININE: 0.19 mg/dL
  GLUCOSE: 150.83 mg/dL
  LACTATE DEHYDROGENASE: 88.17 u/L
  LIPASE: 10.83 u/L
  PHOSPHORUS: 10.9 mg/dL
  POTASSIUM: 5.83 MEQ/L
  SODIUM: 145.15 MEQ/L
  TOTAL BILIRUBIN: 0.12 mg/dL
  TOTAL PROTEIN: 6.22 G/DL
  URIC ACID: 1 mg/dL
[2]
  ABSOLUTE BASOPHIL: 0 CELLS/uL
  ABSOLUTE EOSINOPHIL: 22 CELLS/uL
  ABSOLUTE LYMPHOCYTE: 11105.17 CELLS/uL
  ABSOLUTE MONOCYTE: 258.17 CELLS/uL
  ABSOLUTE SEGMENTED NEUTROPHIL: 881.33 CELLS/uL
  BASOPHIL: 0%
  EOSINOPHIL: 0.17%
  ERYTHROCYTE COUNT: 5.29 x10E6/uL
  HEMATOCRIT: 34.03%
  HEMOGLOBIN: 13.67 G/DL
  LEUKOCYTE COUNT: 12.27 x10E3/uL
  LYMPHOCYTE: 90.83%
  MEAN CORPUSCULAR HEMOGLOBIN: 25.9 pg
  MEAN CORPUSCULAR HEMOGLOBIN CONCENTRATION: 40.18 G/DL
  MEAN CORPUSCULAR VOLUME: 64.42 fL
  MONOCYTE: 2.17%
  NEUTROPHIL: 6.83%
  NUCLEATED RED BLOOD CELLS: 0 /100WBC
  PLATELET COUNT: 1159.83 x10E3/uL
  ALANINE AMINOTRANSFERASE: 45.83 u/L
  ALBUMIN: 4.1 G/DL
  ALKALINE PHOSPHATASE: 240 u/L
  ASPARTATE AMINOTRANSFERASE: 88.67 u/L
  BLOOD UREA NITROGEN: 13.67 mg/dL
  CARBON DIOXIDE: 31.83 mmol/L
  CHLORIDE: 96.83 MEQ/L
  CHOLESTEROL: 71.17 mg/dL
  CREATINE PHOSPHOKINASE: 202.5 u/L
  CREATININE: 0.22 mg/dL
  GLUCOSE: 132.67 mg/dL
  LACTATE DEHYDROGENASE: 107.17 u/L
  LIPASE: 10.5 u/L
  PHOSPHORUS: 10.47 mg/dL
  POTASSIUM: 6.23 MEQ/L
  SODIUM: 140.73 MEQ/L
  TOTAL BILIRUBIN: 0.12 mg/dL
  TOTAL PROTEIN: 6.18 G/DL
  URIC ACID: 0.87 mg/dL
[3]
  ABSOLUTE BASOPHIL: 0 CELLS/uL
  ABSOLUTE EOSINOPHIL: 54.67 CELLS/uL
  ABSOLUTE LYMPHOCYTE: 10489.83 CELLS/uL
  ABSOLUTE MONOCYTE: 135 CELLS/uL
  ABSOLUTE SEGMENTED NEUTROPHIL: 1470.5 CELLS/uL
  BASOPHIL: 0%
  EOSINOPHIL: 0.5%
  ERYTHROCYTE COUNT: 5.25 x10E6/uL
  HEMATOCRIT: 34.42%
  HEMOGLOBIN: 12.32 G/DL
  LEUKOCYTE COUNT: 12.15 x10E3/uL
  LYMPHOCYTE: 86.33%
  MEAN CORPUSCULAR HEMOGLOBIN: 23.48 pg
  MEAN CORPUSCULAR HEMOGLOBIN CONCENTRATION: 35.82 G/DL
  MEAN CORPUSCULAR VOLUME: 65.58 fL
  MONOCYTE: 1.17%
  NEUTROPHIL: 12%
  NUCLEATED RED BLOOD CELLS: 0.17 /100WBC
  PLATELET COUNT: 1089.17 x10E3/uL
  ALANINE AMINOTRANSFERASE: 43.5 u/L
  ALBUMIN: 4.08 G/DL
  ALKALINE PHOSPHATASE: 226.5 u/L
  ASPARTATE AMINOTRANSFERASE: 76.83 u/L
  BLOOD UREA NITROGEN: 10.5 mg/dL
  CARBON DIOXIDE: 25.83 mmol/L
  CHLORIDE: 100.17 MEQ/L
  CHOLESTEROL: 72 mg/dL
  CREATINE PHOSPHOKINASE: 296.17 u/L
  CREATININE: 0.2 mg/dL
  GLUCOSE: 151.5 mg/dL
  LACTATE DEHYDROGENASE: 177.33 u/L
  LIPASE: 10.33 u/L
  PHOSPHORUS: 11.43 mg/dL
  POTASSIUM: 5.33 MEQ/L
  SODIUM: 142.73 MEQ/L
  TOTAL BILIRUBIN: 0.15 mg/dL
  TOTAL PROTEIN: 5.93 G/DL
  URIC ACID: 1 mg/dL
